Reference: patent US20080114007A1 (priority 2006, published 2008)
Like-named read-outs stand apart in the source and are kept apart here.

Target: CSF-1R (Homo sapiens, UniProt P07333)
Test: Peptide (non-phosphorylated) assay, fluorescence polarization competition immunoassay
Type: biochemical
Conditions: 308 μM SYEGNSYTFIDPTQ peptide, 1 mM ATP, 80 min, mean of at least three determinations
Summary of the method: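 Read-out is fluorescence polarization: after EDTA quench, anti-phosphotyrosine antibody plus PTK green tracer compete with the phosphorylated peptide for 30 min. The CSF-1R reaction itself ran 80 min at room temperature after ATP addition. DMSO (4%) wells served as controls, positive controls pre-treated with EDTA.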

[1] = 0.7 nM CSF-1R, read-out: c-fms Peptide IC50

CSF-1R, sequence (P07333 20-972): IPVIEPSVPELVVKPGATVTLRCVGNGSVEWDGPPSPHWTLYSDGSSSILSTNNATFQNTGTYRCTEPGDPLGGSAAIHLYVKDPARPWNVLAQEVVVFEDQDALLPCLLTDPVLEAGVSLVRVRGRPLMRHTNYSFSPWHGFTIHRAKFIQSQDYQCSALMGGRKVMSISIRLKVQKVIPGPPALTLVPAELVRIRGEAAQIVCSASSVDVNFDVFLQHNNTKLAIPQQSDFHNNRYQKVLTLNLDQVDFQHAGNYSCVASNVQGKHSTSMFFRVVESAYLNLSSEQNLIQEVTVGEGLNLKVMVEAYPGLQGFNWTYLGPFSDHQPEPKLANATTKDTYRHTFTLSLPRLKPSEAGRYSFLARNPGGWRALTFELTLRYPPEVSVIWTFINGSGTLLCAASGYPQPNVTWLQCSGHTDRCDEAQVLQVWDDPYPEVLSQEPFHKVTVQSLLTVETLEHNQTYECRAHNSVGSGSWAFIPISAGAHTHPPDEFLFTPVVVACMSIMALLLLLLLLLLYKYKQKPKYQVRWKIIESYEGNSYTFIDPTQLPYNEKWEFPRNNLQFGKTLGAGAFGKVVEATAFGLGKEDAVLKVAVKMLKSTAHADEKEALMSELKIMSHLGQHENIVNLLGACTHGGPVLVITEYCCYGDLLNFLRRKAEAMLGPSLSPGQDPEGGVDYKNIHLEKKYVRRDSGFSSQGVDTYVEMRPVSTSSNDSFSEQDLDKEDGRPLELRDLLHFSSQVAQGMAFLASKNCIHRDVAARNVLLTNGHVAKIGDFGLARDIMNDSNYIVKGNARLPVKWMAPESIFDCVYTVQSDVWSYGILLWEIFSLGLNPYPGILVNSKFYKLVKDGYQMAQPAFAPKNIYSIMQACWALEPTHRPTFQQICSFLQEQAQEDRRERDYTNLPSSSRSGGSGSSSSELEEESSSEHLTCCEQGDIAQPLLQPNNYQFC

Row | Structure (SMILES) | IC50 [1] | IC50 (c-fms Peptide IC50, 0.7 nM CSF-1R)
1 | CCc1ccc(-n2cc(C(=O)NOC)c(=O)c3cnc(Nc4ccc(-n5cccc5)cc4)nc32)cc1 [Cpd 317, 8-(4-ethyl-phenyl)-5-oxo-2-(4-pyrrol-1-yl-phenylamino)-5,8-dihydro-pyrido[2,3-d]pyrimidine-6-carboxylic acid methoxy-amide] | 5.5 nM | –
2 | CONC(=O)c1cn(-c2ccc3c(c2)CCC3)c2nc(Nc3ccc(CCN4CC(F)(F)C4)cc3)ncc2c1=O [Cpd 270, 2-{4-[2-(3,3-difluoro-azetidin-1-yl)-ethyl]-phenylamino}-8-indan-5-yl-5-oxo-5,8-dihydro-pyrido[2,3-d]pyrimidine-6-carboxylic acid methoxy-amide] | 1.6 nM | –
3 | CCNC(=O)c1cn(-c2ccc3c(c2)CCC3)c2nc(Nc3cccc(CCCN(C)C)c3)ncc2c1=O [Cpd 117, 2-[3-(3-dimethylamino-propyl)-phenylamino]-8-indan-5-yl-5-oxo-5,8-dihydro-pyrido[2,3-d]pyrimidine-6-carboxylic acid ethylamide] | 6.5 nM | –
4 | CONC(=O)c1cn(-c2ccc3c(c2)CCC3)c2nc(Nc3ccc(CCN4CCCC4)cc3)ncc2c1=O [Cpd 130, 8-indan-5-yl-5-oxo-2-[4-(2-pyrrolidin-1-yl-ethyl)-phenylamino]-5,8-dihydro-pyrido[2,3-d]pyrimidine-6-carboxylic acid methoxy-amide] | 1.6 nM | –
5 | CONC(=O)c1cn(-c2ccc3c(c2)CCC3)c2nc(Nc3ccc(C4CCN(S(N)(=O)=O)CC4)cc3)ncc2c1=O [Cpd 178, 8-indan-5-yl-5-oxo-2-[4-(1-sulfamoyl-piperidin-4-yl)-phenylamino]-5,8-dihydro-pyrido[2,3-d]pyrimidine-6-carboxylic acid methoxy-amide] | 2.6 nM | –
6 | CN1CCN(CCc2ccc(Nc3ncc4c(=O)c(C(N)=O)cn(-c5ccc(Cl)cc5)c4n3)cc2)CC1 [Cpd 33, 8-(4-chloro-phenyl)-2-{4-[2-(4-methyl-piperazin-1-yl)-ethyl]-phenylamino}-5-oxo-5,8-dihydro-pyrido[2,3-d]pyrimidine-6-carboxylic acid amide] | 20 nM | –
7 | CONC(=O)c1cn(-c2cnc3c(c2)CCC3)c2nc(Nc3ccc(CCS(C)(=O)=O)cc3)ncc2c1=O [Cpd 226, 8-(6,7-dihydro-5H-[1]pyrindin-3-yl)-2-[4-(2-methanesulfonyl-ethyl)-phenylamino]-5-oxo-5,8-dihydro-pyrido[2,3-d]pyrimidine-6-carboxylic acid methoxy-amide] | 7.7 nM | –
8 | CONC(=O)c1cn(-c2ccc3c(c2)CCC3)c2nc(Nc3cccc(N4CCN(S(=O)(=O)C(F)(F)F)CC4)c3)ncc2c1=O [Cpd 202, 8-indan-5-yl-5-oxo-2-[3-(4-trifluoromethanesulfonyl-piperazin-1-yl)-phenylamino]-5,8-dihydro-pyrido[2,3-d]pyrimidine-6-carboxylic acid methoxy-amide] | 68 nM | –
9 | CONC(=O)c1cn(-c2ccc3c(c2)CCC3)c2nc(Nc3ccc(CCc4n[nH]c(C)n4)cc3)ncc2c1=O [Cpd 172, 8-indan-5-yl-2-{4-[2-(5-methyl-1H-[1,2,4]triazol-3-yl)-ethyl]-phenylamino}-5-oxo-5,8-dihydro-pyrido[2,3-d]pyrimidine-6-carboxylic acid methoxy-amide] | 2.3 nM | –
10 | CONC(=O)c1cn(-c2ccc3c(c2)CCC3)c2nc(Nc3ccc(C4CCN(CC(F)(F)F)CC4)cc3)ncc2c1=O [Cpd 292, 8-indan-5-yl-5-oxo-2-{4-[1-(2,2,2-trifluoro-ethyl)-piperidin-4-yl]-phenylamino}-5,8-dihydro-pyrido[2,3-d]pyrimidine-6-carboxylic acid methoxy-amide] | 6 nM | –
11 | CONC(=O)c1cn(-c2ccc3c(c2)CCC3)c2nc(Nc3ccc(N4CCC[C@H]4CO)cc3)ncc2c1=O [Cpd 7, (S)-2-[4-(2-hydroxymethyl-pyrrolidin-1-yl)-phenylamino]-8-indan-5-yl-5-oxo-5,8-dihydro-pyrido[2,3-d]pyrimidine-6-carboxylic acid methoxy-amide] | 1.7 nM | –
12 | CONC(=O)c1cn(-c2ccc3c(c2)CCC3)c2nc(Nc3ccc(CCN4CCC(F)(F)CC4)cc3)ncc2c1=O [Cpd 234, 2-{4-[2-(4,4-difluoro-piperidin-1-yl)-ethyl]-phenylamino}-8-indan-5-yl-5-oxo-5,8-dihydro-pyrido[2,3-d]pyrimidine-6-carboxylic acid methoxy-amide] | – | 1.7 nM
13 | CONC(=O)c1cn(-c2ccc3c(c2)CCC3)c2nc(Nc3ccc(CC(=O)N4CCN(C)CC4)cc3)ncc2c1=O [Cpd 152, 8-indan-5-yl-2-{4-[2-(4-methylpiperazin-1-yl)-2-oxo-ethyl]-phenylamino}-5-oxo-5,8-dihydro-pyrido[2,3-d]pyrimidine-6-carboxylic acid methoxy-amide] | 1.5 nM | –
14 | CCc1ccc(-n2cc(C(=O)NOC)c(=O)c3cnc(Nc4ccc(CC(=O)O)cc4)nc32)cc1 [Cpd 103, {4-[8-(4-ethyl-phenyl)-6-methoxycarbamoyl-5-oxo-5,8-dihydro-pyrido[2,3-d]pyrimidin-2-ylamino]-phenyl}-acetic acid] | 7.2 nM | –
15 | CCc1ccc(-n2cc(C(=O)NOC)c(=O)c3cnc(Nc4ccc(C5CCN(S(N)(=O)=O)CC5)cc4)nc32)cc1 [Cpd 179, 8-(4-ethyl-phenyl)-5-oxo-2-[4-(1-sulfamoyl-piperidin-4-yl)-phenylamino]-5,8-dihydro-pyrido[2,3-d]pyrimidine-6-carboxylic acid methoxy-amide] | 1.8 nM | –
16 | CONC(=O)c1cn(C2CCCCC2)c2nc(Nc3ccc(C[C@H]4COC(=O)N4)cc3)ncc2c1=O [Cpd 22, (S)-8-cyclohexyl-5-oxo-2-[4-(2-oxo-oxazolidin-4-ylmethyl)-phenylamino]-5,8-dihydro-pyrido[2,3-d]pyrimidine-6-carboxylic acid methoxy-amide] | 1.5 nM | –

Other lines, results leading:

Row | IC50 [1] | IC50 (c-fms Peptide IC50, 0.7 nM CSF-1R) | Structure (SMILES)
17 | 1.4 nM | – | COCCNCCc1ccc(Nc2ncc3c(=O)c(C(=O)NOC)cn(-c4ccc5c(c4)CCC5)c3n2)cc1 [Cpd 98, 8-indan-5-yl-2-{4-[2-(2-methoxy-ethylamino)-ethyl]-phenylamino}-5-oxo-5,8-dihydro-pyrido[2,3-d]pyrimidine-6-carboxylic acid methoxy-amide]
18 | 0.25 nM | – | CONC(=O)c1cn(C2CCC(C)(C)CC2)c2nc(Nc3ccc(C4CCN(CCO)CC4)cc3)ncc2c1=O [Cpd 210, 8-(4,4-dimethyl-cyclohexyl)-2-{4-[1-(2-hydroxy-ethyl)-piperidin-4-yl]-phenylamino}-5-oxo-5,8-dihydro-pyrido[2,3-d]pyrimidine-6-carboxylic acid methoxy-amide]
19 | 0.59 nM | – | CCc1ccc(-n2cc(C(=O)NOC)c(=O)c3cnc(Nc4ccc(C5CCCCN5)cc4)nc32)cc1 (stereo not drawn) [Cpd 242, 8-(4-ethyl-phenyl)-5-oxo-2-(4-piperidin-2-yl-phenylamino)-5,8-dihydro-pyrido[2,3-d]pyrimidine-6-carboxylic acid methoxy-amide]
20 | 0.51 nM | – | CCc1ccc(-n2cc(C(=O)NOC)c(=O)c3cnc(Nc4ccc(CCN5CCCC5)cc4)nc32)cc1 [Cpd 55, 8-(4-ethyl-phenyl)-5-oxo-2-[4-(2-pyrrolidin-1-yl-ethyl)-phenylamino]-5,8-dihydro-pyrido[2,3-d]pyrimidine-6-carboxylic acid methoxy-amide]
21 | 0.9 nM | – | CCc1ccc(-n2cc(C(=O)NOC)c(=O)c3cnc(Nc4ccc(C5CCN(CCS(C)(=O)=O)CC5)cc4)nc32)cc1 [Cpd 96, 8-(4-ethyl-phenyl)-2-{4-[1-(2-methanesulfonyl-ethyl)-piperidin-4-yl]-phenylamino}-5-oxo-5,8-dihydro-pyrido[2,3-d]pyrimidine-6-carboxylic acid methoxy-amide]
22 | 0.38 nM | – | CONC(=O)c1cn(-c2ccc3c(c2)CCC3)c2nc(Nc3ccc(C4CCCCN4)cc3)ncc2c1=O (stereo not drawn) [Cpd 246, 8-indan-5-yl-5-oxo-2-(4-piperidin-2-yl-phenylamino)-5,8-dihydro-pyrido[2,3-d]pyrimidine-6-carboxylic acid methoxy-amide]
23 | 1.2 nM | – | CONC(=O)c1cn(-c2ccc3c(c2)CCC3)c2nc(Nc3ccc(CCN4CCN(C(=O)C(F)(F)F)CC4)cc3)ncc2c1=O [Cpd 148, 8-indan-5-yl-5-oxo-2-(4-{2-[4-(2,2,2-trifluoro-acetyl)-piperazin-1-yl]-ethyl}-phenylamino)-5,8-dihydro-pyrido[2,3-d]pyrimidine-6-carboxylic acid methoxy-amide]
24 | 0.28 nM | – | CCc1ccc(-n2cc(C(=O)NOC)c(=O)c3cnc(Nc4ccc(CCN5CCC[C@@H](O)C5)cc4)nc32)cc1 [Cpd 240, 8-(4-ethyl-phenyl)-2-(4-{2-[(3R)-(3-hydroxy-piperidin-1-yl)]-ethyl}-phenylamino)-5-oxo-5,8-dihydro-pyrido[2,3-d]pyrimidine-6-carboxylic acid methoxy-amide]
25 | 0.3 nM | – | CONC(=O)c1cn(-c2ccc3c(c2)CCC3)c2nc(Nc3ccc(OC4CCNCC4)cc3)ncc2c1=O [Cpd 311, 8-indan-5-yl-5-oxo-2-[4-(piperidin-4-yloxy)-phenylamino]-5,8-dihydro-pyrido[2,3-d]pyrimidine-6-carboxylic acid methoxy-amide]
26 | 0.75 nM | – | CONC(=O)c1cn(-c2ccc3c(c2)CCC3)c2nc(Nc3ccc(CCN4CCN(C)C(=O)C4)cc3)ncc2c1=O [Cpd 220, 8-indan-5-yl-2-{4-[2-(4-methyl-3-oxo-piperazin-1-yl)-ethyl]-phenylamino}-5-oxo-5,8-dihydro-pyrido[2,3-d]pyrimidine-6-carboxylic acid methoxy-amide]
27 | 0.7 nM | – | CONC(=O)c1cn(-c2ccc3c(c2)C=CC3)c2nc(Nc3ccc(C4CCN(C)CC4)cc3)ncc2c1=O [Cpd 259, 8-(1H-inden-5-yl)-2-[4-(1-methyl-piperidin-4-yl)-phenylamino]-5-oxo-5,8-dihydro-pyrido[2,3-d]pyrimidine-6-carboxylic acid methoxy-amide]
